Test results reported in patent US20250282714A1, “COMPOSITIONS FOR AND METHODS OF MODULATING RNA STABILITY” (Duke University, priority 2022, published 2025).
Where “and” joins values, the source holds several entries; their conditions need not be identical. Equal entries are not always repeated. Entries after “also recorded” stand apart in the source; their conditions may differ.

Key:
[1] = tested on: MALAT1 triple helix; assay: Differential scanning fluorimetry (DSF), thermal stability; type: binding, human; conditions: DSF
Description: Differential scanning fluorimetry experiments were performed as previously reported. (Donlic A, et al. (2020) Nucleic Acids Res. 48(14):7653-7664). All experiments were performed in white 96 well plates in a LightCycler® 96 (Roche). In a typical experiment, 4 μM of RNA was annealed in the same buffer used for indicator displacement assays (20 mM HEPES-KOH, 52.6 mM KCl, 0.1 mM MgCl2, pH=7.4) by heating at 95° C. for 3 minutes, snap-cooling on ice for 10 minutes, and leaving the solution at room temperature for 1 hr. Then, 42 μL of this solution was aliquoted to wells and 5 μM of ligand was added (2.5 μL of water, 2.0 μL of DMSO, 0.5 μL of 500 μM small molecule stock). The mixture was left to incubate at room temperature for 5 minutes, after which 3 μL of a 20 μM Quant-iT™ RiboGreen™ (ThermoFisher Scientific) dye stock solution in appropriate buffer was added to each well. The 96 well plate was then sealed with an optically clear foil and centrifuged for 1 minute at 4000 rpm prior to being placed in the instrument. The light cycler program was created by selecting the melting curve method; fluorescence intensity was monitored using the SYBR Green I/HRM dye filter combination (465-510 nm) from 37-98° C. at a ramp rate of 0.01° C./second with 150 acquisitions per° C. Melting profiles were obtained by Tm analysis in the LightCycler® 96 software (SW 1.1).
The MALAT1 triple helix is known to confer stability to the full-length transcript and protect it from RNase-mediated degradation, ultimately resulting in transcript accumulation and aggregation in nuclear speckles. (Brown J A, (2020) WIREs RNA. 11(6):e1598; Wilusz J E, et al. (2012) Genes Dev. 26(21):2392-2407; Brown J A, et al. (2014) Nat Struct Mol Biol. 21(7):633-640; Tycowski K T, et al. (2016) Cell Rep. 15(6):1266-1276). To better understand how the diminazene focused library affects the MALAT1 triplex stability, the entire library was evaluated via differential scanning fluorimetry (DSF) (FIG. 5A). This method allows for rapid assessment of small molecule effects on nucleic acid thermal stability (Silvers R, et al. (2015) Chembiochem. 16(7):1109-1114) in a 96-well plate format, substantially reducing the time and cost associated with traditional UV-melting experiments.
The bi-phasic melting profile distinctive of triple helices is attributed to an initial melting of the Hoogsteen triple base pairs followed by dissociation of Watson-Crick-Franklin base pairs (FIG. 16A-FIG. 16E). (Pilch D S, et al. (1995) Biochemistry. 34(49):16107-16124). At an equimolar ratio of RNA:small molecule, a range of thermal stabilization of the first (Tm1) was observed, but not the second (Tm2) melting peak (FIG. 5A, FIG. 13A-FIG. 13Z). At increasing small molecule concentration, a dose-dependent increase in ΔTm1 but not in ΔTm2 was observed, indicating small molecule interactions in the triplex region and not in the upper stem region (FIG. 15).

[2] = tested on: MALAT1 triple helix; assay: RNase A enzymatic degradation assay; type: biochemical, human; conditions: 5-minute time point, relative to DMSO control
Description: The procedure was adapted from a published protocol for exonucleolytic enzymatic degradation assay. (Donlic A, et al. (2020) Nucleic Acids Res. 48(14):7653-7664). The MALAT1 destabilizing small molecules published by Le Grice (Abulwerdi F A, et al. (2019) ACS Chem Biol. 14(2):223-235) and co-workers SM5 and SM16 were purchased from ChemBridge. For a typical 70 μL reaction, […] of MALAT1 triple helix RNA was annealed in the same buffer used for IDA and DSF experiments (20 mM HEPES-KOH, 52 mM KCl, 0.1 mM MgCl2, pH=7.4) by heating at 95° C. for 3 minutes, snap-cooling on ice for 10 minutes, and leaving the solution at room temperature for 1 hr.
RNase A enzyme (ThermoFisher) was diluted to 1.46 nM and incubated with 1 M NaCl for 30-35 minutes to achieve ssRNA selectivity as reported. (Struhl K, et al. (1989) Current Protocols in Molecular Biology. 8(1):3.13.1-3.13.3). Next, the RNA was mixed with 0.2 μM of a GC-rich DNA duplex, […] of small molecule/DMSO and incubated at room temperature for 20 minutes. Following the incubation, […] of RNase A was added, and the reaction was incubated at 37° C. for 1 hour in a thermal cycler with a heated lid (Eppendorf). 4 μL timepoint aliquots were taken at 0, 5, 10, 30, and 60 minutes, 4 μL of 2×RNA loading dye was added to each aliquot (ThermoFischer Scientific), and samples were stored at −80° C. prior to gel analysis. Reactions were analyzed on pre-cast 15% PAGE-Urea gels (Invitrogen) in 1×TBE buffer. Aliquots were thawed from −80° C. storage and heated to 95° C. for 15 minutes prior to gel loading and […] were loaded in each well. Gels were run for 45 minutes at 180 V, stained with Diamond™ Nucleic Acid dye (Promega), and visualized on an iBright 500 (ThermoFisher). DMSO controls were ran with every set of 4 small molecules to ensure consistency of enzyme activity and RNA integrity. Gel band intensity of the MALAT1 triple helix and DNA loading control were quantified using ImageJ software. (Rueden C T, et al. (2017) BMC Bioinformatics. 18(1):529).
To quantify time-dependent endonucleolytic degradation for each sample, the intensity was normalized using Equation (3), and fold-difference was calculated as listed in Equation (4) as previously reported. (Donlic A, et al. (2020) Nucleic Acids Res. 48(14):7653-7664).
where y is normalized RNA area for a specific time point and the sample (tx), TH (triple helix). Area is the raw band intensity for the RNA in the lane corresponding to time point x for that sample, LC (loading control). Area (t0) is the raw band intensity for the DNA in the lane corresponding to the 0 minute time point for the sample, and LC Area (tx) is the raw band intensity for the DNA in the lane corresponding to time point x for that sample.
where y is fold-difference of the exonucleolytic degradation for the specific sample, with normalized areas for its specific time point x and time point 0 calculated as described in Equation (3). Percent RNA degraded was calculated for every time point using Equation (5).
% RNA degraded=(Normalized area (t0)−Normalized area (tx))*100 (Equation 5)
Experimental results shown in FIG. 6C are plotted as three independent replicates and standard deviation between replicates as error bars. Relative fold change between treated condition and DMSO was calculated from Equation (6).
The library was screened using a more biologically relevant in vitro enzymatic degradation assay. Previous work evaluated the effect on triplex degradation of various ionic buffer conditions (Ageeli A A, et al. (2018) Nucleic Acids Res. 47(3):1468-1481) and a sub-set of DPF small molecules (Donlic A, et al. (2020) Nucleic Acids Res. 48(14):7653-7664) using E. coli RNase R exonuclease as it degrades from 3′ to 5′, reporting on the availability of the poly(A) tail normally sequestered in the triplex construct. […]

## N=C(NCc1ccccc1)c1cccc(/N=N/Nc2cccc(C(=N)NCc3ccccc3)c2)c1 [DMZ-M4]
[1]
  effect on MALAT1 triplex thermal stability (in words): increases in thermal stability; also recorded: mediocre
[2]
  increase of the amount of MALAT1 degraded at 5 minutes: 2 fold and > 2 fold
  stabilizer / destabilizer classification by RNase A degradation: destabilizers
